The values below come from PubChem BioAssay (NCI).

Among the test systems are 786-0 renal; LOX IMVI melanoma; MDA-MB-435; MALME-3M melanoma; OVCAR-8 ovarian; NCI-H23 lung; SK-MEL-28 melanoma; UACC-257 melanoma; MOLT-4 leukemia; SW-620 colon; SN12C renal; HT29 colon; SNB-75 CNS; SK-MEL-5 melanoma; COLO 205 colon; OVCAR-3 ovarian.
Common to all, as to test: NCI tumour cell line growth inhibition, 48 h

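1) Cells in 96-well plates. 2) Compound, 48 h, 5 concentrations. 3) Linear interpolation between surrounding doses. 4) Unreached endpoint = highest concentration. TGI: total growth inhibition.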

For the molecule `CC1(C)CC(=O)/C(=C/C2CCNC2=S)C(=O)N1` (configuration not stated), the TGI in the test on 786-0 renal, in the test on LOX IMVI melanoma, with MDA-MB-435, in the test with MALME-3M melanoma, with OVCAR-8 ovarian and in the test with NCI-H23 lung was above 100 µM throughout. Besides, the TGI in the test on SK-MEL-28 melanoma, in the test on UACC-257 melanoma, in the test on MOLT-4 leukemia, with SW-620 colon, in the test on SN12C renal and in the test with HT29 colon was above 100 µM in each case. For the same molecule, the TGI with SNB-75 CNS, in the test with SK-MEL-5 melanoma, with COLO 205 colon and with OVCAR-3 ovarian was above 100 µM each time.
As for `C=C(C)C#CC(O)(C(=O)OC1CCN(C)CC1)C(C)C` (configuration not stated), the TGI in the test on 786-0 renal, in the test on LOX IMVI melanoma, with MDA-MB-435, in the test with MALME-3M melanoma, in the test on OVCAR-8 ovarian and with NCI-H23 lung was above 100 µM throughout. Besides, the TGI in the test on SK-MEL-28 melanoma, with UACC-257 melanoma, with MOLT-4 leukemia, with SW-620 colon, with SN12C renal and in the test on HT29 colon was above 100 µM in each case. In addition, the TGI in the test with SNB-75 CNS, with SK-MEL-5 melanoma, with COLO 205 colon and in the test with OVCAR-3 ovarian was above 100 µM in each case.
As for `COC1(C(C)(C)C)C=C(C(C)(C)C)P(=O)(O)O1` (configuration not stated), the TGI with 786-0 renal, with LOX IMVI melanoma, in the test on MDA-MB-435, with MALME-3M melanoma, in the test with OVCAR-8 ovarian and in the test with NCI-H23 lung was above 100 µM each time. Besides, the TGI with SK-MEL-28 melanoma, with UACC-257 melanoma, in the test on SW-620 colon, in the test on SN12C renal, with HT29 colon and in the test on SNB-75 CNS was above 100 µM in each case. Also, the TGI with SK-MEL-5 melanoma, in the test on COLO 205 colon and in the test with OVCAR-3 ovarian was above 100 µM in each case.
With `Cc1cccc(-n2c(C)nc3ccc(NC4OC(CO)C(O)C(O)C4O)cc3c2=O)c1` (configuration not stated), the TGI in the test with 786-0 renal, in the test with LOX IMVI melanoma, in the test with MDA-MB-435, in the test on MALME-3M melanoma, in the test with OVCAR-8 ovarian and in the test on NCI-H23 lung was above 100 µM throughout. In addition, the TGI in the test on SK-MEL-28 melanoma, in the test with UACC-257 melanoma, with MOLT-4 leukemia, in the test with SW-620 colon, with SN12C renal and with HT29 colon was above 100 µM throughout. The TGI in the test on SNB-75 CNS, with SK-MEL-5 melanoma, in the test on COLO 205 colon and with OVCAR-3 ovarian was above 100 µM in each case.
Turning to `COc1cc(O)c2c(=O)c(OC)c(-c3ccc4c(c3)OCO4)oc2c1`, the TGI in the test on 786-0 renal, in the test with LOX IMVI melanoma, with MDA-MB-435, in the test with MALME-3M melanoma, in the test with OVCAR-8 ovarian and in the test with NCI-H23 lung was above 100 µM in each case. The TGI in the test on SK-MEL-28 melanoma, in the test on UACC-257 melanoma, with MOLT-4 leukemia, in the test with SW-620 colon, with SN12C renal and in the test on HT29 colon was above 100 µM each time. The values for the TGI with SNB-75 CNS, in the test with SK-MEL-5 melanoma and with COLO 205 colon were 14.9 µM, 98.1 µM and above 100 µM, respectively.
`COC(=O)/C=C/c1cnc2c(c1)oc(=O)n2CCc1ccccn1`: the TGI is above 100 µM in the test with 786-0 renal; above 100 µM in the test on LOX IMVI melanoma; 89 µM in the test on MDA-MB-435; above 100 µM with MALME-3M melanoma; above 100 µM in the test on NCI-H23 lung; above 100 µM in the test with SK-MEL-28 melanoma. Also, the TGI in the test on UACC-257 melanoma, in the test on MOLT-4 leukemia, in the test on SW-620 colon, in the test on SN12C renal, with HT29 colon and with SNB-75 CNS was above 100 µM throughout. For the same molecule, the TGI with SK-MEL-5 melanoma, in the test with COLO 205 colon and in the test with OVCAR-3 ovarian was above 100 µM throughout.
Turning to `CN1CCC(CNC(=O)CCCCCCCCC(=O)NCC2(c3ccccc3)CCN(C)CC2)(c2ccccc2)CC1`, the TGI in the test with 786-0 renal, with LOX IMVI melanoma, in the test with MDA-MB-435, in the test on MALME-3M melanoma, in the test on OVCAR-8 ovarian and in the test on SK-MEL-28 melanoma was above 100 µM throughout. The TGI in the test on UACC-257 melanoma, in the test on MOLT-4 leukemia, with SW-620 colon, with SN12C renal, in the test with HT29 colon and in the test with SNB-75 CNS was above 100 µM throughout. The TGI in the test on SK-MEL-5 melanoma, in the test on COLO 205 colon and in the test on OVCAR-3 ovarian was above 100 µM throughout.
In the case of `O=C1c2cccc3cccc(c23)C(=O)N1CCCNCCCCNCCCN1C(=O)c2cccc3cccc(c23)C1=O`, the TGI was determined as 0.734 µM with 786-0 renal; 0.255 µM with LOX IMVI melanoma; 1.28 µM in the test with MDA-MB-435; 0.74 µM in the test on MALME-3M melanoma; 2.24 µM with OVCAR-8 ovarian; 0.866 µM with NCI-H23 lung. Besides, the TGI in the test on SK-MEL-28 melanoma worked out at 0.938 µM; in the test on UACC-257 melanoma it was 1.91 µM; in the test on SW-620 colon, 3.54 µM; with SN12C renal, 2.37 µM; with HT29 colon, 1.27 µM; in the test with SNB-75 CNS it was 1.01 µM. Also, the TGI in the test with SK-MEL-5 melanoma came out at 1.93 µM; in the test with COLO 205 colon, 1.25 µM; in the test on OVCAR-3 ovarian it was 4.58 µM.
Turning to `COc1cccc(/C(CC(O)(C(F)(F)F)C(F)(F)F)=N\N(C)C)c1`, the TGI with 786-0 renal, in the test with LOX IMVI melanoma, in the test with MDA-MB-435, in the test on MALME-3M melanoma, in the test on NCI-H23 lung and in the test on SK-MEL-28 melanoma was above 100 µM each time. The TGI with MOLT-4 leukemia, in the test on SW-620 colon, with SN12C renal, with HT29 colon, in the test with SNB-75 CNS and in the test on SK-MEL-5 melanoma was above 100 µM in each case. Moreover, the TGI with COLO 205 colon and in the test on OVCAR-3 ovarian was above 100 µM in each case.
